Measured values reported in patent US20160221992A1, “DENDRITIC COMPOUNDS INCLUDING A CHELATING, FLUOROCHROME OR RECOGNITION AGENT, COMPOSITIONS INCLUDING SAME AND USES THEREOF” (UNIVERSITE DE STRASBOURG, priority 2013, published 2016).

Tested on: murine melanoma (B16FO line)
Assay: Quantitative study of tumoral fixation and biodistribution of the radiolabeled compound (ex-vivo gamma counting after IV injection)
Type: in vivo, C57B16 mice
Details: for % Elimination/Al / Ratio (g)/Al TU/kidneys / Ratio (g)/Al Tu/Liver / Ratio (g)/Al Tu/Lungs / Ratio (g)/Al Tu/blood / Tumor (g/Al %) / Total Elimination (%/Al): IV; for tumoral uptake compared with the ligand alone (AP045): APAG22-1: at two hours post-IV
Experimental: C57B16 mice bearing xenografts of murine melanoma (B16FO line) obtained by subcutaneous injection of 300 000 cells suspended in 100 μl of RPMI culture medium are injected subcutaneously in the back. The experiment is performed when the tumors are palpable. i.e. about 10 days […]. All the experiments (tumoral graft, injection and imaging) are carried out under isoflurane/oxygen (2.5%/2.5%) gas anesthesia.
Injection of 50 to 100 microliters of the radiolabeled solution, with a maximum activity of 20 MBQ, by direct intravenous injection (caudal vein). The activity of the empty syringe after injection+compress is also measured for calculating the actual activity injected (actual Ac injected=Ac normalized full syringe—normalized activity (empty syringe and compress). Normalization consists in calculating the theoretical activity at one and the same time chosen as reference (for example the time of injection). The measurements are performed on a regularly calibrated activity meter for medical use (Medisystem©).
Scintigraphic imaging is carried out using a dedicated small animal micro-5 imager SPECT-CT (BIOSCAN™). A planar scintigraphic image is obtained immediately after injection to verify absence of intracaudal stasis. If there is stasis, the mouse will be sacrificed at late times (24 or 48 h). Static scintigraphic images may be recorded at 2 h, 4 h, 24 h and 48 h (Imager micro-SPECT-CT BIOSCAN©).
This is done ex-vivo by gamma counting of the various samples, using a gamma well counter for medical use, regularly calibrated for the isotopes used (Tc-99m and In-111). The animals are euthanized according to the protocols allowed by the animal ethics committee at 2 h, 4 h, 24 h or 48 h. The main organs are removed (brain, spleen, kidneys, lungs, heart, alimentary canal, liver) as well as a fragment of skin, muscle, bone and a blood sample and the whole tumor. Each sample is weighed and its gamma activity is counted in a sample-changing well counter for dedicated medical use, calibrated for the radioelements used. The animal's carcass is also weighed after removing the tail; these samples are incinerated and their gamma activity is also measured. The gamma activity of the samples containing all the collected urine and the feces is also measured. The activity of each sample is normalized (relative to the time of injection), and the ratio of the activity of each sample is calculated relative to the total activity injected (=the sum of all of the activities measured except that of the tail), expressed in % per gram of tissue, for calculating the ratio of the activity present in the tumor relative to the main organs (liver, kidneys, lungs and blood). The percentage of the activity eliminated is calculated.
The mean values of all of the data for all of the mice whose data are exploitable are calculated, as well as after eliminating the animals with urinary excretion that is too quick (>50% at 2 h or 75% at 4 h, as well as the mice with tumors >2 g, as the existence of necrosis may distort the calculation of the ratio of fixation in the tumor).
The biodistribution data of the various dendrimer compounds coupled to the IFC01102 ligand (also called amine R) and to a chelating agent are compared with those of the ligand alone coupled to the DOTA chelating agent (compound AP045) and radiolabeled with the same radioelement. 8.5 Results with Compound APAG9-1 (Radiolabeled with Tc99m) The radiochemical purity is above 95%, according to the chromatographic profile obtained as described above (example 5). 12 animals were injected. The average activity injected is 3.5±2.4 MBq. 2 animals were euthanized at 2 h, 4 at 24 h and 48 h post-injection. Examples of planar image immediately post-injection and 2 hours post-injection are illustrated in FIG. 3.

[1] = 48 post-IV, Indium-111-radiolabeled, first series (all animals)
[2] = 48 post-IV, Indium-111-radiolabeled, second series (two mice with too quick urinary excretion eliminated)
[3] = 2 h post-iv, Indium-111-radiolabeled, first series (all animals)
[4] = 2 h post-iv, Indium-111-radiolabeled, second series (two mice with too quick urinary excretion eliminated)
[5] = 4 h post-IV, Indium-111-radiolabeled, first series (all animals)
[6] = 4 h post-IV, Indium-111-radiolabeled, second series (two mice with too quick urinary excretion eliminated)
[7] = 24 h post-IV, Indium-111-radiolabeled, first series (all animals)
[8] = 24 h post-IV, Indium-111-radiolabeled, second series (two mice with too quick urinary excretion eliminated)
[9] = 48 post-IV, Tc99m-radiolabeled, first series (all animals)
[10] = 48 post-IV, Tc99m-radiolabeled, second series (mice with too quick urinary secretion or too large tumor eliminated)
[11] = 2 h post-iv, Tc99m-radiolabeled, first series (all animals)
[12] = 2 h post-iv, Tc99m-radiolabeled, second series (mice with too quick urinary secretion or too large tumor eliminated)
[13] = 4 h post-IV, Tc99m-radiolabeled, first series (all animals)
[14] = 4 h post-IV, Tc99m-radiolabeled, second series (mice with too quick urinary secretion or too large tumor eliminated)
[15] = 24 h post-IV, Tc99m-radiolabeled, first series (all animals)
[16] = 24 h post-IV, Tc99m-radiolabeled, second series (mice with too quick urinary secretion or too large tumor eliminated)

## CCN(CC)CCNC(=O)c1cnc2cc(NC(=O)NCCOCCOCCNC(=O)CCOCCOCCOCCOCCNC(=O)CCN(CCC(=O)NCCOCCOCCOCCOCCC(=O)NCCOCCOCCNC(=O)Nc3ccc4nc(C(=O)NCCN(CC)CC)cnc4c3)Cc3cn(CCOCCOCCOCCOCCOCCOCCOCCNC(=O)CN4CCN(CC(=O)O)CCN(CC(=O)O)CCN(CC(=O)O)CC4)nn3)ccc2n1 [AP071]
[1]
  % Elimination/Al: 8.5E+01%
  Ratio (g)/Al TU/kidneys: 3.15E−01
  Ratio (g)/Al Tu/Liver: 4.79E−01
  Ratio (g)/Al Tu/Lungs: 2.85E+00
  Ratio (g)/Al Tu/blood: 1.17E+01
  Tumor (g/Al %): 3.40E−01 g/Al %
[2]
  % Elimination/Al: 8.5E+01%
  Ratio (g)/Al TU/kidneys: 3.15E−01
  Ratio (g)/Al Tu/Liver: 4.79E−01
  Ratio (g)/Al Tu/Lungs: 2.86E+00
  Ratio (g)/Al Tu/blood: 1.17E+01
  Tumor (g/Al %): 3.40E−01 g/Al %
[3]
  % Elimination/Al: 6.0E+01%
  Ratio (g)/Al TU/kidneys: 2.41E−02
  Ratio (g)/Al Tu/Liver: 1.38E−01
  Ratio (g)/Al Tu/Lungs: 2.43E−01
  Ratio (g)/Al Tu/blood: 8.69E−01
  Tumor (g/Al %): 4.42E+00 g/Al %
[4]
  % Elimination/Al: 5.1E+01%
  Ratio (g)/Al TU/kidneys: 2.25E−01
  Ratio (g)/Al Tu/Liver: 4.89E−01
  Ratio (g)/Al Tu/Lungs: 9.54E−01
  Ratio (g)/Al Tu/blood: 2.73E+00
  Tumor (g/Al %): 6.57E+00 g/Al %
4 hours after IV injection, Indium-111
  tumoral uptake (in words): very high
[5]
  % Elimination/Al: 7.3E+01%
  Ratio (g)/Al TU/kidneys: 1.12E+00
  Ratio (g)/Al Tu/Liver: 2.09E+00
  Ratio (g)/Al Tu/Lungs: 6.20E+00
  Ratio (g)/Al Tu/blood: 3.92E+01
  Tumor (g/Al %): 1.62E+01 g/Al %
[6]
  % Elimination/Al: 6.9E+01%
  Ratio (g)/Al TU/kidneys: 1.39E+00
  Ratio (g)/Al Tu/Liver: 2.80E+00
  Ratio (g)/Al Tu/Lungs: 8.36E+00
  Ratio (g)/Al Tu/blood: 7.20E+01
  Tumor (g/Al %): 2.25E+01 g/Al %
[7]
  % Elimination/Al: 8.5E+01%
  Ratio (g)/Al TU/kidneys: 4.61E−01
  Ratio (g)/Al Tu/Liver: 6.98E−01
  Ratio (g)/Al Tu/Lungs: 2.88E+00
  Ratio (g)/Al Tu/blood: 9.46E+00
  Tumor (g/Al %): 3.07E+00 g/Al %
[8]
  % Elimination/Al: 8.5E+01%
  Ratio (g)/Al TU/kidneys: 4.61E−01
  Ratio (g)/Al Tu/Liver: 6.98E−01
  Ratio (g)/Al Tu/Lungs: 2.88E+00
  Ratio (g)/Al Tu/blood: 9.46E+00
  Tumor (g/Al %): 3.07E+00 g/Al %
  tumoral uptake compared with the ligand alone (AP045): far higher

## CCN(CC)CCNC(=O)c1cnc2cc(NC(=O)NCCOCCOCCNC(=O)CCOCCOCCOCCOCCOCCOCCOCCOCCOc3c(OCCOCCOCCOCCOC)cc(C(=O)NCCCNC(=O)C(CCCNC(=O)c4cccc(O)c4O)(CCCNC(=O)c4cccc(O)c4O)CCCNC(=O)c4cccc(O)c4O)cc3OCCOCCOCCOCCOC)ccc2n1 [APAG22-1]
[9]
  Ratio (g)/Al TU/kidneys: 1.74E−02
  Ratio (g)/Al Tu/Liver: 1.17E−01
  Ratio (g)/Al Tu/Lungs: 2.22E+00
  Ratio (g)/Al Tu/blood: 3.80E+00
  Total Elimination (%/Al): 7.36E+01 %/Al
  Tumor (g/Al %): 6.32E−01 g/Al %
[10]
  Ratio (g)/Al TU/kidneys: 1.74E−02
  Ratio (g)/Al Tu/Liver: 1.17E−01
  Ratio (g)/Al Tu/Lungs: 2.22E+00
  Ratio (g)/Al Tu/blood: 3.80E+00
  Total Elimination (%/Al): 7.32E+01 %/Al
  Tumor (g/Al %): 6.68E−01 g/Al %
[11]
  Ratio (g)/Al TU/kidneys: 3.36E−01
  Ratio (g)/Al Tu/Liver: 3.06E−01
  Ratio (g)/Al Tu/Lungs: 5.44E−01
  Ratio (g)/Al Tu/blood: 3.69E−01
  Total Elimination (%/Al): 2.59E+01 %/Al
  Tumor (g/Al %): 2.98E+00 g/Al %
[12]
  Ratio (g)/Al TU/kidneys: 4.75E−01
  Ratio (g)/Al Tu/Liver: 3.15E−01
  Ratio (g)/Al Tu/Lungs: 4.17E−01
  Ratio (g)/Al Tu/blood: 1.10E+00
  Total Elimination (%/Al): 1.46E+01 %/Al
  Tumor (g/Al %): 3.50E+00 g/Al %
[13]
  Ratio (g)/Al TU/kidneys: 1.09E−01
  Ratio (g)/Al Tu/Liver: 1.90E−01
  Ratio (g)/Al Tu/Lungs: 9.45E−01
  Ratio (g)/Al Tu/blood: 4.62E−01
  Total Elimination (%/Al): 3.58E+01 %/Al
  Tumor (g/Al %): 2.14E+00 g/Al %
[14]
  Ratio (g)/Al TU/kidneys: 1.09E−01
  Ratio (g)/Al Tu/Liver: 1.90E−01
  Ratio (g)/Al Tu/Lungs: 9.45E−01
  Ratio (g)/Al Tu/blood: 4.62E−01
  Total Elimination (%/Al): 3.58E+01 %/Al
  Tumor (g/Al %): 2.14E+00 g/Al %
[15]
  Ratio (g)/Al TU/kidneys: 2.11E−02
  Ratio (g)/Al Tu/Liver: 1.20E−01
  Ratio (g)/Al Tu/Lungs: 2.26E+00
  Ratio (g)/Al Tu/blood: 9.00E+00
  Total Elimination (%/Al): 6.45E+01 %/Al
  Tumor (g/Al %): 1.19E+00 g/Al %
[16]
  Ratio (g)/Al TU/kidneys: 2.11E−02
  Ratio (g)/Al Tu/Liver: 1.20E−01
  Ratio (g)/Al Tu/Lungs: 2.26E+00
  Ratio (g)/Al Tu/blood: 9.00E+00
  Total Elimination (%/Al): 5.45E+01 %/Al
  Tumor (g/Al %): 1.19E+00 g/Al %
  tumoral uptake compared with the ligand alone (AP045): higher
After IV injection of the radiolabeled compound
  time at which the maximum tumoral uptake is observed: 2 h
At 24 hours and 48 hours
  elimination compared with the ligand alone (AP045): far greater
mouse, in vivo
  Tumor to Liver ratio compared with the ligand alone (AP045): much higher
